Consider 7 cell lines from the supplement of paper PMC10307832.

Holding throughout (assay): relative viability (nuclei count vs DMSO), 5 days (fraction); higher = more cells survive
Compound in experiment [1]: C1COCCN1C2=NC(=NC3=C2OC4=C3C=CC=N4)C5=CC(=CC=C5)NC(=O)C6=CN=C(C=C6)N + O=C(c1cc(Cc2n[nH]c(=O)c3ccccc23)ccc1F)N1CCN(C(=O)C2CC2)CC1 [Olaparib] (partner 8 µM)
An outline of the steps:
(§1)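 One day after seeding in 1536-well plates, lung cancer cell lines were dosed by pin tool. Dosing was either single-drug or a fixed anchor-drug dose plus five library-drug doses (not always all listed) in √10 steps. After 5 days, nuclei were stained in one fix-and-stain step and counted on 4× images, and relative viability is the nuclei count of treated wells over that of vehicle wells, given as the median of duplicate plates.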

Compound in experiment [2]: C1COCCN1C2=NC(=NC3=C2OC4=C3C=CC=N4)C5=CC(=CC=C5)NC(=O)C6=CN=C(C=C6)N + Cc1nc(NC(=O)N2CCC[C@H]2C(N)=O)sc1-c1ccnc(C(C)(C)C(F)(F)F)c1 [Alpelisib] (partner 2 µM)
An outline of the steps:
as §1

Compound in experiment [3]: C1COCCN1C2=NC(=NC3=C2OC4=C3C=CC=N4)C5=CC(=CC=C5)NC(=O)C6=CN=C(C=C6)N + C[C@]1(O)C[C@@H](c2nc(-c3ccc4ccc(-c5ccccc5)nc4c3)c3c(N)nccn32)C1 [Linsitinib] (partner 1 µM)
An outline of the steps: as §1

Compound in experiment [4]: C1COCCN1C2=NC(=NC3=C2OC4=C3C=CC=N4)C5=CC(=CC=C5)NC(=O)C6=CN=C(C=C6)N + C[C@@H](Oc1cc(-c2cnn(C3CCNCC3)c2)cnc1N)c1c(Cl)ccc(F)c1Cl [Crizotinib] (partner 1 µM)
An outline of the steps:
as §1

NCI-H23: the relative viability in experiment [1] (first compound 0.02 µM) came out at 0.417; in experiment [1] (first compound 0.06325 µM), 0.314; in experiment [1] (first compound 0.2 µM), 0.281; in experiment [1] (first compound 0.6325 µM), 0.3; in experiment [1] (first compound 2 µM), 0.226; in experiment [2] (first compound 0.02 µM), 0.661. Further, the relative viability stood at 0.822 in experiment [2] (first compound 0.06325 µM); 0.66 in experiment [2] (first compound 0.2 µM); 0.772 in experiment [2] (first compound 0.6325 µM); 0.491 in experiment [2] (first compound 2 µM); 0.6 in experiment [3] (first compound 0.02 µM); 0.576 in experiment [3] (first compound 0.06325 µM). The relative viability was determined as 0.499 in experiment [3] (first compound 0.2 µM); 0.534 in experiment [3] (first compound 0.6325 µM); 0.497 in experiment [3] (first compound 2 µM); 0.56 in experiment [4] (first compound 0.02 µM); 0.487 in experiment [4] (first compound 0.06325 µM); 0.38 in experiment [4] (first compound 0.2 µM). For the same cell line, the relative viability in experiment [4] (first compound 0.6325 µM) was 0.511; in experiment [4] (first compound 2 µM) it was 0.344.

For the cell line NCI-H322M, the relative viability in experiment [1] (first compound 0.02 µM) is 0.793; in experiment [1] (first compound 0.06325 µM), 0.77; in experiment [1] (first compound 0.2 µM), 0.685; in experiment [1] (first compound 0.6325 µM), 0.943; in experiment [1] (first compound 2 µM) it was 0.586; in experiment [2] (first compound 0.02 µM) it was 0.81. In addition, the relative viability amounted to 0.773 in experiment [2] (first compound 0.06325 µM); 0.768 in experiment [2] (first compound 0.2 µM); 0.638 in experiment [2] (first compound 0.6325 µM); 0.665 in experiment [2] (first compound 2 µM); 0.817 in experiment [3] (first compound 0.02 µM); 0.981 in experiment [3] (first compound 0.06325 µM). Besides, the relative viability in experiment [3] (first compound 0.2 µM) amounted to 0.884; in experiment [3] (first compound 0.6325 µM) it was 0.924; in experiment [3] (first compound 2 µM), 0.759; in experiment [4] (first compound 0.02 µM), 0.854; in experiment [4] (first compound 0.06325 µM), 0.991; in experiment [4] (first compound 0.2 µM), 0.879. The relative viability in experiment [4] (first compound 0.6325 µM) was determined as 0.934; in experiment [4] (first compound 2 µM) it was 0.657.

NCI-H358: the relative viability in experiment [1] (first compound 0.02 µM) was determined as 0.7; in experiment [1] (first compound 0.06325 µM), 0.662; in experiment [1] (first compound 0.2 µM) it was 0.552; in experiment [1] (first compound 0.6325 µM), 0.579; in experiment [1] (first compound 2 µM), 0.372; in experiment [2] (first compound 0.02 µM), 0.928. The relative viability was 0.925 in experiment [2] (first compound 0.06325 µM); 0.783 in experiment [2] (first compound 0.2 µM); 0.943 in experiment [2] (first compound 0.6325 µM); 0.486 in experiment [2] (first compound 2 µM); 0.671 in experiment [3] (first compound 0.02 µM); 0.827 in experiment [3] (first compound 0.06325 µM). Moreover, the relative viability was 0.674 in experiment [3] (first compound 0.2 µM); 0.721 in experiment [3] (first compound 0.6325 µM); 0.584 in experiment [3] (first compound 2 µM); 0.64 in experiment [4] (first compound 0.02 µM); 0.586 in experiment [4] (first compound 0.06325 µM); 0.455 in experiment [4] (first compound 0.2 µM). Besides, the relative viability in experiment [4] (first compound 0.6325 µM) amounted to 0.559; in experiment [4] (first compound 2 µM), 0.38.

In the case of NCI-H441, the relative viability in experiment [1] (first compound 0.02 µM) was 0.451; in experiment [1] (first compound 0.06325 µM), 0.553; in experiment [1] (first compound 0.2 µM) it was 0.686; in experiment [1] (first compound 0.6325 µM), 0.536; in experiment [1] (first compound 2 µM) it was 0.414; in experiment [2] (first compound 0.02 µM), 0.832. Also, the relative viability in experiment [2] (first compound 0.06325 µM) was found to be 0.93; in experiment [2] (first compound 0.2 µM) it was 0.751; in experiment [2] (first compound 0.6325 µM), 0.715; in experiment [2] (first compound 2 µM) it was 0.433; in experiment [3] (first compound 0.02 µM), 0.522; in experiment [3] (first compound 0.06325 µM), 0.609. Moreover, the relative viability in experiment [3] (first compound 0.2 µM) came out at 0.569; in experiment [3] (first compound 0.6325 µM) it was 0.534; in experiment [3] (first compound 2 µM) it was 0.357; in experiment [4] (first compound 0.02 µM), 0.71; in experiment [4] (first compound 0.06325 µM), 0.679; in experiment [4] (first compound 0.2 µM), 0.688. Moreover, the relative viability in experiment [4] (first compound 0.6325 µM) was found to be 0.923; in experiment [4] (first compound 2 µM), 0.415.

With NCI-H460, the relative viability came to 0.578 in experiment [1] (first compound 0.02 µM); 0.537 in experiment [1] (first compound 0.06325 µM); 0.376 in experiment [1] (first compound 0.2 µM); 0.413 in experiment [1] (first compound 0.6325 µM); 0.182 in experiment [1] (first compound 2 µM); 0.393 in experiment [2] (first compound 0.02 µM). For the same cell line, the relative viability in experiment [2] (first compound 0.06325 µM) was 0.5; in experiment [2] (first compound 0.2 µM), 0.395; in experiment [2] (first compound 0.6325 µM), 0.349; in experiment [2] (first compound 2 µM), 0.0947; in experiment [3] (first compound 0.02 µM) it was 0.839; in experiment [3] (first compound 0.06325 µM) it was 0.959. Moreover, the relative viability came out at 0.834 in experiment [3] (first compound 0.2 µM); 0.583 in experiment [3] (first compound 0.6325 µM); 0.225 in experiment [3] (first compound 2 µM); 1.16 in experiment [4] (first compound 0.02 µM); 1.03 in experiment [4] (first compound 0.06325 µM); 0.913 in experiment [4] (first compound 0.2 µM). Moreover, the relative viability in experiment [4] (first compound 0.6325 µM) was found to be 0.927; in experiment [4] (first compound 2 µM) it was 0.144.

For the cell line NCI-H520, the relative viability in experiment [1] (first compound 0.02 µM) is 0.383; in experiment [1] (first compound 0.06325 µM) it was 0.352; in experiment [1] (first compound 0.2 µM) it was 0.332; in experiment [1] (first compound 0.6325 µM), 0.328; in experiment [1] (first compound 2 µM), 0.292; in experiment [2] (first compound 0.02 µM), 0.914. Also, the relative viability was found to be 0.923 in experiment [2] (first compound 0.06325 µM); 0.971 in experiment [2] (first compound 0.2 µM); 1.02 in experiment [2] (first compound 0.6325 µM); 0.406 in experiment [2] (first compound 2 µM); 1.09 in experiment [3] (first compound 0.02 µM); 1.08 in experiment [3] (first compound 0.06325 µM). Moreover, the relative viability in experiment [3] (first compound 0.2 µM) was found to be 1.07; in experiment [3] (first compound 0.6325 µM), 1.08; in experiment [3] (first compound 2 µM), 0.373; in experiment [4] (first compound 0.02 µM), 0.925; in experiment [4] (first compound 0.06325 µM) it was 0.775; in experiment [4] (first compound 0.2 µM) it was 0.803. Moreover, the relative viability in experiment [4] (first compound 0.6325 µM) is 0.756; in experiment [4] (first compound 2 µM) it was 0.443.

Regarding NCI-H596, the relative viability in experiment [1] (first compound 0.02 µM) was 0.589; in experiment [1] (first compound 0.06325 µM) it was 0.668; in experiment [1] (first compound 0.2 µM), 0.601; in experiment [1] (first compound 0.6325 µM) it was 0.747; in experiment [1] (first compound 2 µM), 0.621; in experiment [2] (first compound 0.02 µM) it was 0.497. The relative viability in experiment [2] (first compound 0.06325 µM) was 0.51; in experiment [2] (first compound 0.2 µM), 0.691; in experiment [2] (first compound 0.6325 µM) it was 0.51; in experiment [2] (first compound 2 µM), 0.394; in experiment [3] (first compound 0.02 µM) it was 0.959; in experiment [3] (first compound 0.06325 µM), 1.15. Besides, the relative viability was 1.1 in experiment [3] (first compound 0.2 µM); 0.96 in experiment [3] (first compound 0.6325 µM); 0.727 in experiment [3] (first compound 2 µM); 1.1 in experiment [4] (first compound 0.02 µM); 0.983 in experiment [4] (first compound 0.06325 µM); 0.99 in experiment [4] (first compound 0.2 µM). Besides, the relative viability in experiment [4] (first compound 0.6325 µM) is 0.942; in experiment [4] (first compound 2 µM) it was 0.746.
